# Laboratory results published in patent US20250099466A1 (BRISTOL-MYERS SQUIBB COMPANY, priority 2021, published 2025).
# System: subjects undergoing elective total knee replacement surgery
# Test: Phase 2 study of milvexian versus enoxaparin after elective total knee replacement: venous thromboembolism events
# Format: in vivo, human
# Details: for Major VTE % / Major VTE n / Total VTE % / Total VTE RR vs. Enoxaparin / Total VTE n: mITT, Day 14; for Asymptomatic distal DVT % / Asymptomatic distal DVT n / Asymptomatic proximal DVT % / Asymptomatic proximal DVT n / Death n / Distal DVT % / Distal DVT n / Non-fatal PE n / Proximal DVT % / Proximal DVT n / Symptomatic distal DVT n / Symptomatic proximal DVT n / Non-fatal PE % / Symptomatic distal DVT %: through day 14; for incidence of segments with the most severe DVT severity score of 3: subjects with DVT on venography
# From the text: [table] […] The study used a prospective, randomized, open-label, blinded endpoint (PROBE) design. […] The enoxaparin control arm likewise completed its pre-specified randomization of 300 subjects. […] FIG. 1 provides the study design, including number of subjects randomized into each study arm. […] An adaptive design was used to optimize patient recruitment for the dose-response evaluation. The number of dose regimens, the option to implement additional once daily dosing regimens, and the randomization ratio were based on the results of the periodic reviews and interim analysis. […] Randomization was performed postoperatively using a centralized interactive web-based response system and was stratified by geographic region of the study centers. […] Enoxaparin was given subcutaneously at a dose of 40 mg once daily and was started either the evening before or 12 to 24 hours after surgery. […] The primary efficacy outcome was venous thromboembolism, defined as the composite of asymptomatic deep-vein thrombosis (detected by mandatory unilateral venography performed 10 to 14 days after surgery), confirmed symptomatic venous thromboembolism (symptomatic deep-vein thrombosis of the leg or nonfatal pulmonary embolism), or death. […] Factor XI antisense oligonucleotide for prevention of venous thrombosis. N Engl J Med 2015; 372:232-40; Fuji et al., A dose-ranging study evaluating the oral factor Xa inhibitor edoxaban for the prevention of venous thromboembolism in patients undergoing total knee arthroplasty. J Thromb Haemost 2010; 8:2458-68). The major secondary efficacy outcomes were: (a) proximal deep-vein thrombosis (symptomatic or asymptomatic), (b) distal deep-vein thrombosis (symptomatic or asymptomatic) (c) nonfatal pulmonary embolism, and (d) death. An exploratory efficacy outcome was the extent of venous thrombosis on venography, which was assessed by the adjudication committee using predefined categories. […] Statistics in Medicine 2014; 33:1646-61). […] Venograms, assessed by independent blinded adjucators, were used to identify, and to assign DVT severity scores to, subjects with DVT. […] For each evaluated segment, a severity score was assigned depending on the presence and, if present, extension of the clot in the segment of the vein. Severity scores, on a scale of 0-3, were assigned as follows: 0=no clot; 1=less than ⅓; 2=greater than or equal to ⅓ but less than ⅔; and 3=greater than ⅔ the length of the vein segment.
# [1] = milvexian all regimens combined
# [2] = milvexian combined BID regimens
smiles,measurement,setting,value
"C[C@@H]1CCC[C@H](n2cnc(-c3cc(Cl)ccc3-n3cc(Cl)nn3)cc2=O)c2cc(ccn2)-c2c(cnn2C(F)F)NC1=O [milvexian, (5R,9S)-9-(4-(5-chloro-2-(4-chloro-1H-1,2,3-triazol-1-yl)phenyl)-6-oxopyrimidin-1(6H)-yl)-21-(difluoromethyl)-5-methyl-21H-3-aza-1(4,2)-pyridina-2(5,4)-pyrazolacyclononaphan-4-one]",Major VTE %,milvexian 25 mg BID,0.8%
same,Major VTE n,milvexian 25 mg BID,1 n
same,Total VTE %,milvexian 25 mg BID,21.0%
same,Total VTE RR vs. Enoxaparin,milvexian 25 mg BID,0.97
same,Total VTE n,milvexian 25 mg BID,27 n
same,Major VTE %,"milvexian 25 mg BID, listed as Milvexian",(0.8%)
same,Asymptomatic distal DVT %,milvexian 25 mg BID,20.2%
same,Asymptomatic distal DVT n,milvexian 25 mg BID,26 n
same,Asymptomatic proximal DVT %,milvexian 25 mg BID,0.8%
same,Asymptomatic proximal DVT n,milvexian 25 mg BID,1 n
same,Death n,milvexian 25 mg BID,0 n
same,Distal DVT %,milvexian 25 mg BID,20.2%
same,Distal DVT n,milvexian 25 mg BID,26 n
same,Non-fatal PE n,milvexian 25 mg BID,0 n
same,Proximal DVT %,milvexian 25 mg BID,0.8%
same,Proximal DVT n,milvexian 25 mg BID,1 n
same,Symptomatic distal DVT n,milvexian 25 mg BID,0 n
same,Symptomatic proximal DVT n,milvexian 25 mg BID,0 n
same,Major VTE n,milvexian 25 mg once daily,0 n
same,Total VTE %,milvexian 25 mg once daily,(25.0%)
same,Total VTE RR vs. Enoxaparin,milvexian 25 mg once daily,1.00
same,Total VTE n,milvexian 25 mg once daily,7 n
same,Major VTE %,milvexian 50 mg BID,0.8%
same,Major VTE n,milvexian 50 mg BID,1 n
same,Total VTE %,milvexian 50 mg BID,11.3%
same,Total VTE RR vs. Enoxaparin,milvexian 50 mg BID,0.53
same,Total VTE n,milvexian 50 mg BID,14 n
same,Major VTE %,"milvexian 50 mg BID, listed as Milvexian",(0.8%)
same,incidence of segments with the most severe DVT severity score of 3,milvexian 50 mg BID,0%
same,Asymptomatic distal DVT %,milvexian 50 mg BID,10.5%
same,Asymptomatic distal DVT n,milvexian 50 mg BID,13 n
same,Asymptomatic proximal DVT n,milvexian 50 mg BID,0 n
same,Death n,milvexian 50 mg BID,0 n
same,Distal DVT %,milvexian 50 mg BID,10.5%
same,Distal DVT n,milvexian 50 mg BID,13 n
same,Non-fatal PE %,milvexian 50 mg BID,0.8%
same,Non-fatal PE n,milvexian 50 mg BID,1 n
same,Proximal DVT n,milvexian 50 mg BID,0 n
same,Symptomatic distal DVT n,milvexian 50 mg BID,0 n
same,Symptomatic proximal DVT n,milvexian 50 mg BID,0 n
same,Major VTE %,milvexian 50 mg once daily,1.6%
same,Major VTE n,milvexian 50 mg once daily,2 n
same,Total VTE %,milvexian 50 mg once daily,(23.6%)
same,Total VTE RR vs. Enoxaparin,milvexian 50 mg once daily,1.15
same,Total VTE n,milvexian 50 mg once daily,30 n
same,Major VTE %,"milvexian 50 mg once daily, listed as Milvexian",(1.6%)
same,Major VTE %,milvexian 100 mg BID,1.5%
same,Major VTE n,milvexian 100 mg BID,2 n
same,Total VTE %,milvexian 100 mg BID,9.0%
same,Total VTE RR vs. Enoxaparin,milvexian 100 mg BID,0.42
same,Total VTE n,milvexian 100 mg BID,12 n
same,Major VTE %,"milvexian 100 mg BID, listed as Milvexian",(1.5%)
same,incidence of segments with the most severe DVT severity score of 3,milvexian 100 mg BID,1.52%
same,Asymptomatic distal DVT %,milvexian 100 mg BID,7.5%
same,Asymptomatic distal DVT n,milvexian 100 mg BID,10 n
same,Asymptomatic proximal DVT %,milvexian 100 mg BID,0.7%
same,Asymptomatic proximal DVT n,milvexian 100 mg BID,1 n
same,Death n,milvexian 100 mg BID,0 n
same,Distal DVT %,milvexian 100 mg BID,7.5%
same,Distal DVT n,milvexian 100 mg BID,10 n
same,Non-fatal PE %,milvexian 100 mg BID,0.7%
same,Non-fatal PE n,milvexian 100 mg BID,1 n
same,Proximal DVT %,milvexian 100 mg BID,0.7%
same,Proximal DVT n,milvexian 100 mg BID,1 n
same,Symptomatic distal DVT %,milvexian 100 mg BID,0.7%
same,Symptomatic distal DVT n,milvexian 100 mg BID,1 n
same,Symptomatic proximal DVT n,milvexian 100 mg BID,0 n
same,Major VTE n,milvexian 200 mg BID,0 n
same,Total VTE %,milvexian 200 mg BID,7.6%
same,Total VTE RR vs. Enoxaparin,milvexian 200 mg BID,0.37
same,Total VTE n,milvexian 200 mg BID,10 n
same,incidence of segments with the most severe DVT severity score of 3,milvexian 200 mg BID,2.73%
same,Asymptomatic distal DVT %,milvexian 200 mg BID,7.6%
same,Asymptomatic distal DVT n,milvexian 200 mg BID,10 n
same,Asymptomatic proximal DVT n,milvexian 200 mg BID,0 n
same,Death n,milvexian 200 mg BID,0 n
same,Distal DVT %,milvexian 200 mg BID,7.6%
same,Distal DVT n,milvexian 200 mg BID,10 n
same,Non-fatal PE n,milvexian 200 mg BID,0 n
same,Proximal DVT n,milvexian 200 mg BID,0 n
same,Symptomatic distal DVT n,milvexian 200 mg BID,0 n
same,Symptomatic proximal DVT n,milvexian 200 mg BID,0 n
same,Major VTE n,milvexian 200 mg once daily,0 n
same,Total VTE %,milvexian 200 mg once daily,(6.5%)
same,Total VTE RR vs. Enoxaparin,milvexian 200 mg once daily,0.30
same,Total VTE n,milvexian 200 mg once daily,8 n
same,incidence of segments with the most severe DVT severity score of 3,milvexian 200 mg once daily,0%
same,Total VTE %,[1],13.6%
same,Total VTE n,[1],108 n
same,reduction of total VTE compared to enoxaparin,milvexian at total daily doses of ≥200 mg,> 50%
same,Total VTE %,[2],12.2%
same,Total VTE n,[2],63 n
same,Asymptomatic distal DVT %,[2],11.4%
same,Asymptomatic distal DVT n,[2],59 n
same,Asymptomatic proximal DVT %,[2],0.4%
same,Asymptomatic proximal DVT n,[2],2 n
same,Death n,[2],0 n
same,Distal DVT %,[2],11.4%
same,Distal DVT n,[2],59 n
same,Non-fatal PE %,[2],0.4%
same,Non-fatal PE n,[2],2 n
same,Proximal DVT %,[2],0.4%
same,Proximal DVT n,[2],2 n
same,Symptomatic distal DVT %,[2],0.2%
same,Symptomatic distal DVT n,[2],1 n
same,Symptomatic proximal DVT n,[2],0 n
